Values quoted from earlier work in patent US20100167984A1, “Complex between human insulin and an amphiphilic polymer and use of this complex in the preparation of a fast-acting human insulin formulation” (ADOCIA, priority 2008, published 2010).

What was measured:
[1] = due to dissociation equilibria of hexamers; Brange J. et al. 1999
[2] = hexamer form, at 4° C.

In the case of “Human insulin: human insulin, assembled in the hexamer form”, the “slowing down of action in comparison with a fast-acting insulin analog” value [1] is given as “approximately 20 minutes” and the “stability (storage time)” value [2] is given as “approximately 2 years”.
